These are literature values, as cited in patent US6368616B1, “Aqueous suspension for nasal administration of loteprednol” (Senju Pharmaceutical Co., Ltd., priority 1997, dated 2002).

Each structure is given as a SMILES string.

Regarding `CCOC(=O)O[C@]1(C(=O)OCCl)CC[C@H]2[C@@H]3CCC4=CC(=O)C=C[C@]4(C)[C@H]3[C@@H](O)C[C@@]21C` [loteprednol etabonate, Loteprednol etabonate], the solubility in water result was “substantially insoluble in water”.
